Where “and” joins values, the source holds several entries; their conditions need not be identical. Equal values may be shown once.
Tests used:
E. coli harboring pUD15 = type: cell-based
[1] = test system: E. coli harboring pUD15 and pUD16; type: cell-based

[Cl-].[Cl-].[Co+2] [CoC12, CoCl2]
optical density of the culture at 600 nm (E. coli harboring pUD15): 2.808 and 2.6955 and 2.330
optical density of the culture at 600 nm [1]: 2.524 and 2.173 and 2.113
